Data published in ChEMBL document CHEMBL1133644, “Platelet glycoprotein IIb-IIIa antagonists as prototypical integrin blockers: novel parenteral and potential oral antithrombotic agents” (J Med Chem, 2000).
Blank lines part the entries; values can stand above or below the molecule they belong to. Positions of bridges follow the written chain, without caps; N, C: chain ends. Non-standard residues stand in square brackets, D forms with d. Residues, ends and D or L forms follow the SMILES beside them. NMeR = CN[C@@H](CCCNC(=N)N)C(=O)O; hArg = N=C(N)NCCCC[C@H](N)C(=O)O; 3Amb = NCc1cccc(C(=O)O)c1; dAbu = CC[C@@H](N)C(=O)O; Mpa = O=C(O)CCS

Key:
[1] = Oral bioavailability in dog; type: ADME, organism-based, Canis lupus familiaris; settings: in vivo
[2] = biological half-life was measured on dogs; type: ADME, organism-based, Canis lupus familiaris; settings: dog, in vivo
[3] = In vitro inhibition of gel filtered platelet aggregation induced by ADP.
Homo sapiens [4] = organism: Homo sapiens; assay: half-life was measured on unactivated human platelets
[5] = oral bioavailability was measured in dogs; type: ADME, organism-based, Canis lupus familiaris; settings: dog, in vivo
[6] = Duration of action in dog at a dose of 1 mg/kg i.d.; type: ADME, organism-based, Canis lupus familiaris; parameters: dose 1 mg/kg, route intraduodenal; settings: in vivo, other
[7] = target: T1, Integrin alpha-IIb/beta-3 (Homo sapiens, UniProt P05106+P08514); assay: Inhibition of alpha IIb beta III mediated platelet aggregation
Target sequence in this assay (P05106 27-788 limits assumed): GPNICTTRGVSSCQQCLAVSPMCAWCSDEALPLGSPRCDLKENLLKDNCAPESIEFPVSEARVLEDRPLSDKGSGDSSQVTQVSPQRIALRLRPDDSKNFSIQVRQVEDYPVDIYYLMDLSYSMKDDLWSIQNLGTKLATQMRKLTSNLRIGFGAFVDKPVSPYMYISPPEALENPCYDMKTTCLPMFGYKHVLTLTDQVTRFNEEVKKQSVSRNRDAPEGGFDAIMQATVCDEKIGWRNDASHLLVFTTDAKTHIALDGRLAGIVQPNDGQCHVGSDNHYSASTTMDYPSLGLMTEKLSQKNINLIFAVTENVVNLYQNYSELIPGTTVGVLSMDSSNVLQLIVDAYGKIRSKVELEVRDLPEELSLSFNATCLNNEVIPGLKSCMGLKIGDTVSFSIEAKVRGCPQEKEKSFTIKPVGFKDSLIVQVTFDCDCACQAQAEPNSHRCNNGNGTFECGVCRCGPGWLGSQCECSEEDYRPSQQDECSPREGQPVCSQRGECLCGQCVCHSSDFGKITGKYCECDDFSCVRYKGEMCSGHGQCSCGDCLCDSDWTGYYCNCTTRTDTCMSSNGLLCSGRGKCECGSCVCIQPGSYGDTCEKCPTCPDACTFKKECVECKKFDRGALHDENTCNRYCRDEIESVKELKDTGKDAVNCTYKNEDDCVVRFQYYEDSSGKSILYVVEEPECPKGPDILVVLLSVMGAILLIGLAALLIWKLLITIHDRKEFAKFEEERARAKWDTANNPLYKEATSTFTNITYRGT
Target sequence in this assay (P08514 32-887 limits assumed): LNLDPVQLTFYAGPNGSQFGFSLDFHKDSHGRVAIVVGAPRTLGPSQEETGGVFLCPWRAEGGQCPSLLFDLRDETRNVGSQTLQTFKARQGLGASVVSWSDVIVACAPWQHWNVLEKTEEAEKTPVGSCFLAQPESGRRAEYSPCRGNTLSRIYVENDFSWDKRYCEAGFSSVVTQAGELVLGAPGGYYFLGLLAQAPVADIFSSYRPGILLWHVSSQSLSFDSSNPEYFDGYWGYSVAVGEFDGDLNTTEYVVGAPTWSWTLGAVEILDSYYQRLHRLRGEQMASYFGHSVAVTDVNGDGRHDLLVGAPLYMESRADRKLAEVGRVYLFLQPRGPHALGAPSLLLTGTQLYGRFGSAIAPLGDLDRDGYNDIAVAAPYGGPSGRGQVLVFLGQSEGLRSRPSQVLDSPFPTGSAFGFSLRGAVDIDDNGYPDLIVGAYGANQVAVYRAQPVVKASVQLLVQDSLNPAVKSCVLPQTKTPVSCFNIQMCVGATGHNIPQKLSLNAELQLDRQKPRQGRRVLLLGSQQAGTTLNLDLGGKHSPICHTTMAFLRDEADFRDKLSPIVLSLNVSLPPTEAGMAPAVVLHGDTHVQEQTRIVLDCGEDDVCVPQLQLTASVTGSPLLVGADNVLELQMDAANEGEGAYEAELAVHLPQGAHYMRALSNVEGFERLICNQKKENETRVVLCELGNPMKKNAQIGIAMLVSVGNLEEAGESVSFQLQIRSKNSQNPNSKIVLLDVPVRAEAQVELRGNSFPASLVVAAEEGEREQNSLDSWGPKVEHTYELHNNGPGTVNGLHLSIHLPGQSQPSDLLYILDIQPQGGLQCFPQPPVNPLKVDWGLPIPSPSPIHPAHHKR
Target sequence in this assay (P08514 891-1039 limits assumed): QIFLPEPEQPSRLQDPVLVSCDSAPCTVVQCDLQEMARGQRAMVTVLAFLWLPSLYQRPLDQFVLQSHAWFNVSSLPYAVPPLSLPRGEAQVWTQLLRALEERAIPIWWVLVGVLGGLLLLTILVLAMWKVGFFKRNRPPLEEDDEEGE

[8] = target: T1, Integrin alpha-IIb/beta-3; assay: Inhibition of fibrinogen binding to alpha IIb beta-3 integrin; type: protein-complex assay
Target sequence in this assay (P05106 27-788 limits assumed): as the sequence (P05106 27-788 limits assumed) above
Target sequence in this assay (P08514 32-887 limits assumed): as the sequence (P08514 32-887 limits assumed) above
Target sequence in this assay (P08514 891-1039 limits assumed): as the sequence (P08514 891-1039 limits assumed) above

Homo sapiens [9] = organism: Homo sapiens; assay: biological half-life was measured on unactivated human platelets
[10] = target: T1, Integrin alpha-IIb/beta-3; assay: Percent inhibition of gel filtered platelet aggregation induced by ADP; type: functional; settings: concentration not given here
[11] = target: T1, Integrin alpha-IIb/beta-3; assay: Inhibition of platelet aggregation after administration of 10 ug/kg iv to dogs at 8 hr; type: functional, organism-based; settings: Canis lupus familiaris; target entry is the homologue from another species
[12] = target: T1, Integrin alpha-IIb/beta-3; assay: Inhibition of platelet aggregation after administration of 10 ug/kg iv to dogs within 1 min; type: functional, organism-based; settings: Canis lupus familiaris; target entry is the homologue from another species
[13] = target: T1, Integrin alpha-IIb/beta-3; assay: Inhibition of platelet aggregation after administration of 0.1 mg/kg at 24 hr; settings: Canis lupus familiaris
[14] = target: T1, Integrin alpha-IIb/beta-3; assay: Inhibition of fibrinogen binding to alpha IIb beta-3 integrin using thrombin inhibitor PPACK as anticoagulant; type: functional
Target sequence in this assay (P05106 27-788 limits assumed): as the sequence (P05106 27-788 limits assumed) above
Target sequence in this assay (P08514 32-887 limits assumed): as the sequence (P08514 32-887 limits assumed) above
Target sequence in this assay (P08514 891-1039 limits assumed): as the sequence (P08514 891-1039 limits assumed) above

[15] = oral bioavailability was measured on rats; type: ADME, organism-based; settings: rat, in vivo
[16] = oral bioavailability was measured on rhesus monkey; type: ADME, organism-based, Macaca mulatta; settings: in vivo
[17] = target: T1, Integrin alpha-IIb/beta-3; assay: Inhibition of platelet aggregation after 10 ug/kg/day dose over 6 days in dogs; type: functional; settings: Canis lupus familiaris; target entry is the homologue from another species
[18] = oral bioavailability was measured in rhesus monkeys; type: ADME, organism-based, Macaca mulatta; settings: rhesus monkey, in vivo
[19] = Inhibition of platelet aggregation
[20] = target: T1, Integrin alpha-IIb/beta-3; assay: Dissociation constant for alpha IIb beta-3 integrin rested platelets; type: functional
Target sequence in this assay (P05106 27-788 limits assumed): as the sequence (P05106 27-788 limits assumed) above
Target sequence in this assay (P08514 32-887 limits assumed): as the sequence (P08514 32-887 limits assumed) above
Target sequence in this assay (P08514 891-1039 limits assumed): as the sequence (P08514 891-1039 limits assumed) above

[21] = Inhibition of vitronectin receptor binding; parameters: species or system Homo sapiens
[22] = Bioavailability in humans; type: ADME, organism-based; settings: human, in vivo
[23] = Half-life in humans; type: ADME, organism-based; settings: human, in vivo
[24] = half-life of compound in human; settings: in vivo
[25] = target: T1, Integrin alpha-IIb/beta-3; assay: Inhibition of ex vivo platelet aggregation after oral administration of 0.5 mg/kg to cynomolgus monkeys at 2-8h; type: functional, organism-based; parameters: dose 0.5 mg/kg; settings: at 0.5 mg/kg
[26] = oral bio availability was measured on dogs; type: ADME, organism-based, Canis lupus familiaris; settings: dog, in vivo
[27] = target: T1, Integrin alpha-IIb/beta-3; assay: Dissociation constant for [3H]-DMP728 binding to alphaIIb beta III integrin; type: protein-complex assay
Target sequence in this assay (P05106 27-788 limits assumed): as the sequence (P05106 27-788 limits assumed) above
Target sequence in this assay (P08514 32-887 limits assumed): as the sequence (P08514 32-887 limits assumed) above
Target sequence in this assay (P08514 891-1039 limits assumed): as the sequence (P08514 891-1039 limits assumed) above

[28] = target: T1, Integrin alpha-IIb/beta-3; assay: Inhibition of ex vivo maximal platelet aggregation in conscious dogs after oral administration of 4 mg/kg; settings: Canis lupus familiaris; target entry is the homologue from another species; at 4 mg/kg
[29] = biological half-life was measured on dog; type: ADME, organism-based, Canis lupus familiaris; settings: in vivo
[30] = target: T1, Integrin alpha-IIb/beta-3; assay: Inhibition of platelet aggregation after oral administration of 3 mg/kg to guinea pigs at 8 hr; type: functional, organism-based; parameters: dose 3 mg/kg; settings: Cavia porcellus; target entry is the homologue from another species; at 3 mg/kg
[31] = target: T1, Integrin alpha-IIb/beta-3; assay: Inhibition of platelet aggregation after oral administration of 3 mg/kg to guinea pigs within 1 hr; type: functional, organism-based; parameters: dose 3 mg/kg; settings: Cavia porcellus; target entry is the homologue from another species; at 3 mg/kg
[32] = half life was measured on dogs; type: ADME, organism-based, Canis lupus familiaris; settings: dog, in vivo
[33] = The biological half life was measured on dog; type: ADME, organism-based, Canis lupus familiaris; settings: in vivo
[34] = target: T1, Integrin alpha-IIb/beta-3; assay: Inhibition of platelet aggregation after administration of 30 ug/kg iv bolus to dogs within first 1-15 min; type: functional, organism-based; settings: Canis lupus familiaris; target entry is the homologue from another species
[35] = biological half-life was measured on rhesus monkeys; type: ADME, organism-based, Macaca mulatta; settings: rhesus monkey, in vivo
[36] = target: T1, Integrin alpha-IIb/beta-3; assay: Inhibition of platelet aggregation after 0.25 mg/kg/day dose over 4 days at trough plasma concentrations in dogs; type: functional, organism-based; settings: Canis lupus familiaris, target entry is the homologue from another species
[37] = target: T1, Integrin alpha-IIb/beta-3; assay: Inhibition of [125]fibrinogen binding to alpha IIb beta-3 integrin; type: protein-complex assay
Target sequence in this assay (P05106 27-788 limits assumed): as the sequence (P05106 27-788 limits assumed) above
Target sequence in this assay (P08514 32-887 limits assumed): as the sequence (P08514 32-887 limits assumed) above
Target sequence in this assay (P08514 891-1039 limits assumed): as the sequence (P08514 891-1039 limits assumed) above

[38] = target: T1, Integrin alpha-IIb/beta-3; assay: Inhibition of fibrinogen binding to activated platelets
[39] = target: T1, Integrin alpha-IIb/beta-3; assay: Inhibition of fixed platelet aggregation; type: functional
[40] = oral bioavailability was measured on dogs and rats; type: ADME, organism-based; settings: eutheria, in vivo

bioavailability [1]: 42% | half-life [2]: 9.9 h
SMILES: C[C@@]1(c2ccc(C(=N)N)cc2)NC(=O)N(CC(=O)NC(CC(=O)O)c2ccccc2)C1=O (some centres not stated)

IC50 [3]: 35 nM
SMILES: N=C(N)c1ccc2oc(C(=O)NCCC(=O)NC[C@H](NS(=O)(=O)c3ccccc3)C(=O)O)cc2c1

T1/2 (Homo sapiens [4]): 0.533 h
SMILES: Cc1noc(C)c1S(=O)(=O)N[C@@H](CNC(=O)C[C@H]1CC(c2ccc(C(=N)N)cc2)=NO1)C(=O)O

bioavailability [5]: 4.9%
SMILES: O=C(CCCC1CCNCC1)NCC(=O)N[C@H](CCc1c[nH]c2ccccc12)C(=O)O

duration of action [6]: > 8 h | Kd [7]: 1.85 nM
SMILES: CN1Cc2cc(C(=O)N3CCC(C4CCNCC4)CC3)ccc2N[C@@H](CC(=O)O)C1=O [LOTRAFIBAN]

IC50 [3]: 90 nM
SMILES: N=C(N)c1ccc(C(=O)Nc2ccc3c(c2)CCN(CC(=O)O)C3=O)cc1

IC50 [8]: 27000 nM
SMILES: CC(=O)N[C@@H](CCCN=C(N)N)C(=O)NCC(=O)N[C@@H](CC(=O)O)C(=O)N[C@H](C(N)=O)C(C)C (Ac-RGDV-NH2)

T1/2 (Homo sapiens [9]): 7 min
SMILES: CCCCOC(=O)N[C@@H](CNC(=O)C[C@H]1CC(c2ccc(C(=N)N)cc2)=NO1)C(=O)O

inhibition [10]: 66% | inhibition [11]: > 90% | inhibition [12]: 79% | inhibition [13]: 87%
SMILES: Cc1ccc(S(=O)(=O)N[C@@H](CNC(=O)c2cc3n(n2)CCCN(CCC2CCNCC2)C3=O)C(=O)O)cc1

IC50 [3]: 7 nM
SMILES: O=C(NC[C@H](NS(=O)(=O)c1ccccc1)C(=O)O)c1cc2sc(CCC3CCNCC3)cc2s1

IC50 [14]: 570 nM
SMILES: N=C(N)NCCCC[C@@H]1NC(=O)CCSSC[C@@H](C(N)=O)NC(=O)[C@@H]2CCCN2C(=O)[C@H](Cc2c[nH]c3ccccc23)NC(=O)[C@H](CC(=O)O)NC(=O)CNC1=O [EPTIFIBATIDE] ([Mpa][hArg]GDWPC-NH2; disulfide 1-7)

bioavailability [15]: 6% | bioavailability [16]: 21%
SMILES: CCOC(=O)CCN1CC(=O)N(C)c2ccc(C#Cc3ccc(C(=N)NC(=O)OCC)cc3)cc2C1=O

inhibition [17]: > 80% | IC50 [3]: 8 nM
SMILES: O=C(NC[C@H](NS(=O)(=O)c1cccnc1)C(=O)O)c1cc2cc(CCC3CCNCC3)sc2s1

bioavailability [5]: > 17% | bioavailability [18]: 32%
SMILES: C#C[C@H](CC(=O)OCC)NC(=O)CN1CCc2ccc(N3CCNCC3)cc2C1=O

IC50 [19]: 17 nM
SMILES: O=C(NC[C@H](NS(=O)(=O)c1ccccc1)C(=O)O)c1ccc(N2CCNCC2)cc1

Kd [20]: 1.4 nM
SMILES: CCCCS(=O)(=O)N[C@@H](CNC(=O)c1cc2n(n1)CCN(CCC1CCNCC1)C2=O)C(=O)O

Ki [21]: 3.5 nM
SMILES: CN1C(=O)c2ccccc2SSc2ccccc2NC(=O)[C@H](CC(=O)O)NC(=O)CNC(=O)[C@@H]1CCCN=C(N)N [SKF-107260]

bioavailability [22]: 40% | half-life [23]: 6 h
SMILES: CCOC(=O)CN1CCN(C[C@@H]2CN(c3ccc(C(N)=NC(=O)OC)cc3)C(=O)O2)CC1 [GANTOFIBAN]

half-life [24]: 0.5 h
SMILES: CCCCS(=O)(=O)N[C@@H](Cc1ccc(OCCCCC2CCNCC2)cc1)C(=O)O [TIROFIBAN]

inhibition [25]: > 80%
SMILES: Cc1c(C(=O)NCCC(=O)O)s/c(=N\C(=O)c2ccc(C(=N)N3CCC4(CC3)OCCO4)cc2)n1C

bioavailability [26]: 12% | IC50 [8]: 2.3 nM | Kd [27]: 0.1 nM
SMILES: CC[C@H]1NC(=O)c2cccc(c2)CNC(=O)[C@H](CC(=O)O)NC(=O)CNC(=O)[C@H](CCCN=C(N)N)N(C)C1=O (cyclo([NMeR]GD[3Amb][dAbu]))

IC50 [3]: 25 nM | inhibition [28]: 90%
SMILES: O=C(O)CCNC(=O)c1ccc2c(c1)C(=O)N(CCC1CCNCC1)C2

bioavailability [1]: 28% | half-life [29]: 18 h
SMILES: CCOC(=O)CCNC(=O)N[C@H]1CCN(c2ccc(C(=N)N)cc2)C1=O [ORBOFIBAN]

inhibition [30]: 40% | inhibition [31]: > 90%
SMILES: COC(=O)C[C@H]1C(=O)N(CC(=O)O)CCN1C(=O)CNC(=O)c1ccc(C(=N)N)cc1

half-life [32]: 1.42 h
SMILES: O=C(O)C[C@H](NC(=O)[C@@H]1CCCN(C(=O)CCC2CCNCC2)C1)c1cccnc1 [ELAROFIBAN]

bioavailability [1]: 53% | half-life [33]: 6.5 h
SMILES: C#C[C@H](CC(=O)O)NC(=O)CCC(=O)Nc1ccc(C(=N)N)cc1

bioavailability [1]: 16% | Kd [20]: 650 nM | inhibition [34]: > 90%
SMILES: C[C@H](CC(=O)O)NC(=O)CN1CCC[C@@H](CCC2CCNCC2)C1=O

half-life [2]: 11.4 h | half-life [35]: 5.1 h
SMILES: C[C@H](NC(=O)c1ccc(C(=N)N)cc1)C(=O)N1CCC(OCC(=O)O)CC1 [RO-44-3888]

IC50 [3]: 120 nM
SMILES: CN1C(=O)CN(CCC(=O)O)C(=O)c2cc(C#Cc3ccc(C(=N)N)cc3)ccc21

inhibition [36]: 95%
SMILES: O=C(NC[C@H](NS(=O)(=O)c1ccccc1)C(=O)O)c1cc2cc(OCC3CCNCC3)ccc2[nH]1

F [1]: 53%
SMILES: C#C[C@H](CC(=O)OCC)NC(=O)CCC(=O)Nc1ccc(C(=N)N)cc1 [XEMILOFIBAN]

half-life [29]: 1.1 h | IC50 [37]: 2.8 nM | IC50 [8]: 480 nM
SMILES: CC(=O)N[C@H]1CSSC[C@@H](C(N)=O)NC(=O)[C@H](CC(=O)O)NC(=O)CNC(=O)[C@H](CCCN=C(N)N)N(C)C1=O (Ac-C[NMeR]GDC-NH2; disulfide 1-5)

IC50 [3]: 15 nM
SMILES: O=C(NC[C@H](NS(=O)(=O)c1cccnc1)C(=O)O)c1ccc2c(c1)C(=O)N(CCC1CCNCC1)C2

IC50 [8]: 27000 nM
SMILES: COc1ccc(C[C@H](NC(=O)[C@H](CC(=O)O)NC(=O)CNC(=O)[C@@H](N)CCCNC(=N)N)C(N)=O)cc1 (H-RGDY(Me)-NH2)

IC50 [38]: 28 nM | IC50 [39]: 97 nM
SMILES: CCN(CC(=O)N[C@@H](CC(=O)O)C(=O)N[C@@H](Cc1ccccc1)C(N)=O)C(=O)CCCC1CCNCC1

bioavailability [40]: > 50%
SMILES: C[C@@H](COc1ccc(N2CCN(c3ccncc3)CC2)cc1)CC(=O)O
